# Measurements reported in patent publication US20120077732A1, “CYCLIC PEPTIDES AND USES THEREOF” (SYDNEY WEST AREA HEALTH SERVICE, priority 2008, published 2012).
# Like-named read-outs stand apart in the source and are kept apart here.
# Assays:
# [1] = assay type: physicochemical
# Procedure: pH stability was also investigated. C1 (2 μg/μl) was incubated at 30° C. for three days at pH 3, 7 and 10. Samples were taken after each day and analysed by mass spectrometry.
# [2] = system: E. coli; assay: Standard disk susceptibility testing (NCCLS), E. coli; assay type: cell-based
# Procedure: (§1) The synthetic C1 peptide and its analogues were tested using Standard disk susceptibility testing by National Committee for […] Laboratory Standards (NCCLS) against, S. aureus, E. coli and S. pneumoniae. […]
# [3] = system: S. pneumoniae; assay: Standard disk susceptibility testing (NCCLS), S. pneumoniae; assay type: cell-based
# Procedure: as §1
# [4] = Surface plasmon resonance binding to DMPC liposomes; details: SPR
# Procedure: (§2) Model membranes composed of zwitterionic and anionic phospholipids were prepared as previously described (Bender et al., 2004). Briefly, DMPC and DMPG were dissolved in dry chloroform and chloroform/methanol (2:1) respectively to give 10 mg/ml solutions. […] The solution was sonicated in an ultrasonic bath for 20 min. Eight cycles of freeze/thawing was followed by extrusion through polycarbonate filters, first 100 nm (21 times) then 50 nm pore diameter (21 times), using a Lipofast apparatus (Avestin, Ottawa, Canada) and SUVs were used immediately. SPR was carried out on a BIAcore 2000 instrument using Pioneer Sensor Chip L1 and HEPES (HBS-N, Biacore, Upssala, Sweden) as running buffer. The chip surface was cleaned with 40 mM octyl glycoside (30 μl, 10 μl/min) followed liposomes (SUV) (100 μl, 5 μl/min). 10 mM NaOH (40 μl, 10 μl/min) removed any multilamellar vesicles from the surface before injecting the lipopeptide solutions (100 μl, 5 μl/min). The dissociation stage was 1200 sec. […] All SPR experiments were run at 25° C. and all analyses were performed using the BIAevaluation software (Biacore, Uppsala, Sweden). Lipopeptide binding was expressed as the difference in signal between points before sample injection and after dissociation.
# [5] = system: NOD mice; assay: Treatment of NOD mice, blood glucose level / diabetes; assay type: in vivo; details: i.p. injections of 0.1 mg
# Procedure: NOD mice were fasted for at least 1.5 h prior to blood glucose level (BGL) measurements. In the morning, all mice were treated with intraperitoneal (i.p.) injections of 0.1 mg C1 and BGLs were taken. Control mice received 0.2 mL of water.
# [6] = system: 2B4.11 T-cells; assay: in vitro; assay type: cell-based; details: 50 μM, relative to 0.5% DMSO control; ±SD
# Procedure: First, to determine if the activity of C1 was due to toxicity, 2B4.11 T-cells (1×10^5) were cultured in microtiter wells in the presence of the peptide conjugates at 50 μM. After 20 hours, 30 μL were removed and cells assessed for viability by trypan blue staining. The remaining culture was then pulsed with 0.5 μCi [^3H] thymidine for 5 h, harvested, and quantitated for [^3H] thymidine uptake to assess cellular proliferation.
# [7] = system: 2B4 cells; assay: T-cell activation with PMA and ionomycin, IL-2 production; details: PMA 40 ng/mL + ionomycin 5 μg/mL; 50 μM; ±SD
# Procedure: Further, T-cells were activated using PMA and ionomycin stimulation. The method employed to activate T cells utilized the protein kinase C activating PMA in combination with the calcium ionophore, ionomycin. In combination, PMA/ionomycin effectively activate T cells downstream from the TCR. Phorbol 12-myristate 13-acetate (PMA) (40 ng/mL) and ionomycin (5 μg/mL) were added to 2B4 cells (5×10^4) and incubated with each CP-conjugate at 50 μM in 0.5% DMSO in 96-well, round bottom microtiter plates for 24 h at 37° C. with 5% CO2 in a total volume of 250 μL. Supernatants were then collected and analysed for IL-2 production. All CP-conjugates were tested simultaneously in triplicate wells, and each experiment was performed on three separate occasions.
# [8] = system: 2B4.11 cells; assay type: cell-based; details: 50 μM
# [9] = system: trypsin; assay type: in vitro ADME
# Procedure: The effect of trypsin on C1 and CP was studied by incubating each peptide (1 μg/μl) in methanol and ammonium bicarbonate (0.1M) with 125 ng/μl of trypsin at pH 8 and 37° C. The effect of trypsin after incubation with CP and C1 was followed by mass spectrometry. […]
# [10] = system: S. aureus; assay type: cell-based
# Procedure: as §1
# [11] = system: Wistar rats; assay: Adjuvant-induced arthritis model; assay type: in vivo; details: given subcutaneously, four daily injections of 6 mg at onset of arthritis
# [12] = system: allergic mice (OVA/OVA); assay: Allergic airways disease (OVA) model: airways hyperreactivity to methacholine; assay type: in vivo; set-up: key to Airway Resistance / Airway Compliance: nc: no change; ↑: increase; ↓: decrease
# [13] = system: 2B4.11 cells; assay: T-cell activation with H57-597 antibody (TCRβ chain crosslinking), IL-2 production; assay type: cell-based; details: H57-597 0.5 μg/mL with LK cells; 50 μM; relative to DMSO control; ±SD
# Procedure: (§3) To analyse the mode of action of C1, T-cells were activated using 2C11-145 and H57-597 antibodies. The H57-597 antibody is directed against the TCRβ chain, and when administered at sub-optimal doses in conjunction with accessory cells (LK35.2), is capable of activating T cells. […] C1 was added to give a final reaction volume of 250 μL at 50 μM and 0.5% DMSO.
# [14] = system: 2B4.11 cells; assay: T-cell activation with 2C11-145 antibody (CD3 crosslinking), IL-2 production; assay type: cell-based; details: CD3 crosslinking with 2C11-145; 50 μM; relative to DMSO control; ±SD
# Procedure: as §3, with “DMSO. […] T cells were also activated using the 2C11-145 antibody to crosslink the CD3 chains of the TCR, thereby bypassing the antigen recognition sub-units of the TCRα/β.” for “DMSO.”
# [15] = system: allergic mice (OVA/OVA); assay: Allergic airways disease (OVA) model: local and systemic OVA-specific cytokine production; assay type: in vivo; set-up: key to Spleen OVA-stimulated IL-5 / Spleen OVA-stimulated IL-13 / LN OVA-stimulated IL-5 / LNOVA stimulated IL-13: nc: no change; ↑: increase; ↓: decrease
# [16] = Surface plasmon resonance binding to DMPG liposomes; details: SPR, L1 sensor chip, 50 μM, 25° C.
# Procedure: as §2
# [17] = 200 μg s.c. during challenge, allergic mice
# [18] = 200 μg/100 μl s.c. during OVA challenge, compared to OVA/OVA alone
smiles,measurement,setting,value
"CC(C)C[C@@H]1NC(=O)[C@@H](CC(C)C)NC(=O)[C@H](CCCNC(=N)N)NC(=O)[C@@H](CC(C)C)NC(=O)CNC(=O)[C@@H](C(C)C)NC(=O)[C@H](CCCCN)NC(=O)[C@@H](CC(C)C)NC(=O)[C@H](CC(C)C)NC(=O)[C@@H](CC(C)C)NC1=O [C1, LDRLDLLDLLDKVDG]",pH range over which stable,[1],1-11 pH
same,"antimicrobial activity, E. coli",[2]; peptide 10 μg/ml,−ve
same,"antimicrobial activity, E. coli",[2]; peptide 100 μg/ml,−ve
same,"antimicrobial activity, E. coli",[2]; peptide 1000 μg/ml,−ve
same,"antimicrobial activity, S. pneumoniae",[3]; peptide 10 μg/ml,−ve
same,"antimicrobial activity, S. pneumoniae",[3]; peptide 100 μg/ml,−ve
same,"antimicrobial activity, S. pneumoniae",[3]; peptide 1000 μg/ml,−ve
same,binding affinity to DMPC model membrane relative to CP,[4],approximately 10 fold
same,binding to DMPC (zwitterionic) liposomes,"[4]; L1 sensor chip, 50 μM, 25° C.",bound much stronger
same,binding relative to all the other analogues examined (with the exception of C2),[4]; model membranes,> 10 fold
same,blood glucose level control versus control group,[5],more tightly controlled
same,mice that developed diabetes (BGL higher than 15 mM on two consecutive days),"[5]; preliminary results, control 7/21",2/7
same,cellular proliferation ([3H] thymidine uptake),[6],62.56%±14.25
same,IL-2 production relative to the DMSO control,[7],62.83%+/−17.60
same,IL-2 production,[8],71.42%+/−14.275D
same,"stability without trypsin, 3 hours (Mass spectroscopy-MS)",[9],No degradation product
same,"stability without trypsin, 24 hours (MS)",[9],No degradation product
same,MIC against S. aureus,[10],100 µg/mL
same,"antimicrobial activity, S. aureus",[10]; peptide 10 μg/ml,−ve
same,"antimicrobial activity, S. aureus",[10]; peptide 100 μg/ml,+ve
same,"antimicrobial activity, S. aureus",[10]; peptide 1000 μg/ml,+ve
same,effect in reducing inflammation (total foot swelling),[11],comparable effect to cyclosporin
same,airway resistance in response to methacholine challenge,[12]; [17],no significant effect
same,dynamic compliance in response to methacholine challenge,[12]; [17],no significant effect
same,Airway Compliance,[12]; [18],↑
same,Airway Resistance,[12]; [18],nc
same,IL-2 production,[13],54.02%+/−9.32
same,% IL-2 production,[14],50.00%+/−15.79
same,locally produced (peribronchial lymph node derived) IL-5,[15]; [17],significant decrease
same,locally produced (peribronchial lymph node derived) IL-13,[15]; [17],significant decrease
same,systemic (spleen derived) IL-5,[15]; [17],significant decrease
same,systemic (spleen derived) IL-13,[15]; [17],significant decrease
same,LN OVA-stimulated IL-5,[15]; [18],↓
same,LNOVA stimulated IL-13,[15]; [18],↓
same,Spleen OVA-stimulated IL-5,[15]; [18],↓
same,Spleen OVA-stimulated IL-13,[15]; [18],↓
same,binding to DMPG (anionic) liposomes,[16],bound much stronger
